Reference: article PMC7738508, “A therapeutic combination of two small molecule toxin inhibitors provides broad preclinical efficacy against viper snakebite” (Nature Communications, 2020)
Where “and” joins values, the source holds several entries; their conditions need not be identical. Equal values may be shown once.

Columns and labels:
[1] = system: Bitis arietans venom SVMP activity; experiment: fluorogenic SVMP assay; assay type: biochemical; conditions: independent repeats
Protocol: (§1) The SVMP assay measuring metalloproteinase activity and the plasma assay measuring coagulation in the presence or absence of venoms and inhibitors were performed as previously described. The SVMP assay kinetically measured cleavage of a quenched fluorogenic substrate (ES010, R&D Biosystems) by venom in the presence or absence of inhibitors.
(§2) Briefly, 10 µl of the substrate (supplied as a 6.2 mM stock) was used per 5 ml reaction buffer (150 mM NaCl, 50 mM Tris-Cl pH 7.5). Reactions consisted of 10 µl of venom ± inhibitors in PBS and 90 µl of substrate. Venoms were used at 1 µg/reaction and final inhibitor concentrations ranged from 150 µM to 150 nM. Samples were preincubated for 30 min at 37 °C and pipetted in triplicate into 384-well plates (Greiner). Thereafter, data was collected on an Omega FLUOstar (BMG Labtech) instrument at an excitation wavelength of 320 nm and emission wavelength of 405 nm at 25 °C for 1 h. The areas under the curve (AUCs) in the 0–40 min interval were calculated for each sample using MARS data analysis software v3.31 (BMG Labtech); this time point was chosen as the time where all fluorescence curves had reached a plateau (maximum fluorescence). For comparing venom-only samples, the means of at least three independent experimental runs for each condition, expressed as AUCs (n ≥ 3), were plotted at each inhibitor concentration with standard error of the mean (SEM). To determine inhibitor efficacy, the AUCs for each of the samples that consisted of venom + inhibitors were transformed and expressed as percentages of the venom-only sample (where the venom was 100%). The negative control (PBS-only) was also expressed relative to the venom, and the variation in background was presented as an interval delineated by the lowest and highest values in the PBS-only samples across concentrations and inhibitors for a specific venom.

[2] = system: Echis carinatus venom SVMP activity; experiment: fluorogenic SVMP assay; assay type: biochemical; conditions: inhibitor 15 µM, independent repeats
Protocol: as §1, §2

[3] = system: Echis ocellatus venom SVMP activity; experiment: fluorogenic SVMP assay; assay type: biochemical; conditions: independent repeats
Protocol: as §1, §2

[4] = system: Bothrops asper venom SVMP activity; experiment: fluorogenic SVMP assay; assay type: biochemical; conditions: independent repeats
Protocol: as §1, §2

[5] = system: pro- and anticoagulant fractions of D. russelii venom; experiment: nanofractionation with plasma coagulation assay; assay type: biochemical, Daboia russelii; conditions: nanofractionated D. russelii venom; inhibitor 0.0064 to 20 µM
Protocol: Fifty microlitres of venom solution (D. russelii; 1 mg/ml) was injected into a Shimadzu LC-2010 system with nanofractionation in parallel. Separation was performed on a Waters XBridge reversed-phase C18 column (250 × 4.6 mm^2 column with 3.5 μm pore-size) at 30 °C. The total flow rate of the mobile phase solution was 0.5 ml/min with eluent A (98% H2O, 2% acetonitrile [ACN], 0.1% formic acid [FA]) and eluent B (98% ACN, 2% H2O, 0.1% FA). Liquid chromatography gradients consisted of a linear increase of mobile phase B from 0 to 50% in 20 min, followed by a linear increase to 90% B in 4 min, then isocratic at 90% B for 5 min, after which the percentage of mobile phase B was decreased from 90 to 0% in 1 min, followed by 10 min at 0% B to re-equilibrate. The effluent was split in a 1:9 ratio of which the 10% fraction was sent to a Shimadzu SPD-M20A prominence diode array detector and the 90% fraction was directed to a nanofractionation collector which dispensed the fractions into transparent 384-well plates (F-bottom, rounded square well, polystyrene, without lid, clear, non-sterile; Greiner Bio One, Alphen aan den Rijn, The Netherlands) at a resolution of 6 s/well. The collector used was either a commercially available FractioMate^TM nanofractionator (SPARK-Holland & VU, Netherlands, Emmen & Amsterdam) controlled by FractioMator software v1.0 (Spark-Holland, The Netherlands, Emmen) or a modified Gilson 235P autosampler controlled by in-house written software Ariadne v1.8 (VU Amsterdam). The well plates with venom fractions were then dried overnight in a Christ Rotational Vacuum Concentrator (RVC 2 − 33 CD plus, Zalm en Kipp, Breukelen, The Netherlands) equipped with a cooling trap, and maintained at −80 °C during operation. The freeze-dried plates were then stored at −80 °C prior to bioassaying.
The final assay concentrations of the inhibitors tested in the assay were 20, 4, 0.8, 0.16, 0.032, and 0.0064 µM. The plates were then incubated for 30 min at room temperature, and during this time bovine plasma (Sterile Filtered, Biowest, Nuaille, France) was defrosted in a water bath and centrifuged for 4 min at 805 × g prior to use. […] The plate was then read immediately for absorbance kinetically for 100 min at 595 nm at 25 °C using a Varioskan Flash Multimode Reader (Thermo Fisher Scientific, Ermelo, The Netherlands). The obtained results were normalized by dividing the slope measured in each well by the median of all slope values across the plate, and the processed coagulation chromatograms were plotted to visualize very fast coagulation, medium increased coagulation and anticoagulation, as previously described.

CNC(=O)[C@@H](NC(=O)[C@H](CC(C)C)[C@H](O)C(=O)NO)C(C)(C)C [marimastat]
SVMP activity, percentage of the venom-only sample ([1]; inhibitor 15 µM): 15.1667% and 15.8748% and 15.6727%
SVMP activity, percentage of the venom-only sample ([1]; inhibitor 150 µM): 14.1911% and 15.0205% and 14.976%
SVMP activity, percentage of the venom-only sample [2]: 11.481% and 22.9494% and 21.3373%
SVMP activity, percentage of the venom-only sample ([3]; inhibitor 15 µM): 19.3205% and 20.8108% and 21.1203%
SVMP activity, percentage of the venom-only sample ([3]; inhibitor 150 µM): 18.1136% and 19.6025% and 15.3204%
SVMP activity, percentage of the venom-only sample ([4]; inhibitor 15 µM): 33.0579% and 34.1722% and 57.3186%
SVMP activity, percentage of the venom-only sample ([4]; inhibitor 150 µM): 29.6154% and 33.7275% and 43.4535%
inhibition of anticoagulant venom fractions [5]: not neutralized
inhibition of procoagulant venom fractions [5]: effectively inhibited in a dose-dependent manner
